Calls of active or inactive are those of the source. The calls are words filed in the database; no cut-off is given here.
Legend:
Mus musculus [1] = assay: Anticonvulsant activity against Swiss mouse seizure model assessed as protection at 100 mg/kg, ip pretreated for 0.25 hrs by 6 Hz psychomotor seizure test; format: functional, organism-based
[2] = Protective index, ratio of TD50 for neurotoxicity in ip dosed Swiss mouse to ED50 for anticonvulsant activity in ip dosed MES Swiss mouse model at 0.25 hrs; format: toxicity, organism-based; details: in vivo, read-out: Ratio TD50/ED50
[3] = Protective index, ratio of TD50 for neurotoxicity in ip dosed Swiss mouse to ED50 for anticonvulsant activity in ip dosed Swiss mouse 6 Hz psychomotor seizure model at 0.25 hrs; format: toxicity, organism-based; details: in vivo, read-out: Ratio TD50/ED50
[4] = Neurotoxicity in ip dosed Swiss mouse seizure model assessed as motor impairment pretreated for 0.25 hrs measured within 60 s by chimney test; format: toxicity, organism-based; details: in vivo
Mus musculus [5] = assay: Antinociceptive activity in ip dosed Swiss mouse assessed as reduction of formalin-induced licking at MES ED50 pretreated for 0.25 hrs measured during 15 to 20 mins; format: functional; parameters: scale not given: the % may be the effect or the level left
Mus musculus [6] = assay: Antinociceptive activity in ip dosed Swiss mouse assessed as reduction of formalin-induced licking at MES ED50 pretreated for 0.25 hrs measured during 1 to 5 mins; format: functional
Mus musculus [7] = assay: Anticonvulsant activity in Swiss mouse assessed as protection against maximal electroshock-induced seizures at 300 mg/kg, ip pretreated for 2 hrs; format: functional, organism-based
Mus musculus [8] = assay: Anticonvulsant activity in Swiss mouse assessed as protection against maximal electroshock-induced seizures at 100 mg/kg, ip pretreated for 1 hr; format: functional, organism-based
Mus musculus [9] = assay: Anticonvulsant activity in Swiss mouse assessed as protection against maximal electroshock-induced seizures at 100 mg/kg, ip pretreated for 2 hrs; format: functional, organism-based
Mus musculus [10] = assay: Anticonvulsant activity against Swiss mouse seizure model assessed as protection at 100 mg/kg, ip pretreated for 2 hrs by 6 Hz psychomotor seizure test; format: functional, organism-based
Mus musculus [11] = assay: Anticonvulsant activity against ip dosed Swiss mouse seizure model assessed as protection at 0.25 hrs by 6 Hz psychomotor seizure test; format: functional
Mus musculus [12] = assay: Anticonvulsant activity in ip dosed Swiss mouse assessed as protection against maximal electroshock-induced seizures at 0.25 hrs; format: functional
Mus musculus [13] = assay: Anticonvulsant activity in ip dosed Swiss mouse assessed as reduction in clonic seizures at 0.25 hrs by subcutaneous pentylenetetrazole seizure test; format: functional
Mus musculus [14] = assay: Anticonvulsant activity in Swiss mouse assessed as protection against maximal electroshock-induced seizures at 300 mg/kg, ip pretreated for 0.25 hrs; format: functional, organism-based
Mus musculus [15] = assay: Anticonvulsant activity in Swiss mouse assessed as protection against maximal electroshock-induced seizures at 300 mg/kg, ip pretreated for 0.5 hrs; format: functional, organism-based
Mus musculus [16] = assay: Anticonvulsant activity in Swiss mouse assessed as protection against maximal electroshock-induced seizures at 300 mg/kg, ip pretreated for 1 hr; format: functional, organism-based
Mus musculus [17] = assay: Anticonvulsant activity in Swiss mouse assessed as protection against maximal electroshock-induced seizures at 100 mg/kg, ip pretreated for 0.25 hrs; format: functional, organism-based
Mus musculus [18] = assay: Anticonvulsant activity in Swiss mouse assessed as protection against maximal electroshock-induced seizures at 100 mg/kg, ip pretreated for 0.5 hrs; format: functional, organism-based
Mus musculus [19] = assay: Anticonvulsant activity in ip dosed Swiss mouse assessed as reduction in clonic seizures at 0.5 hrs by subcutaneous pentylenetetrazole seizure test; format: functional
Mus musculus [20] = assay: Anticonvulsant activity in Swiss mouse assessed as reduction in clonic seizures at 100 mg/kg, ip pretreated for 2 hrs measured after 30 mins by subcutaneous pentylenetetrazole seizure test; format: functional, organism-based
Mus musculus [21] = assay: Anticonvulsant activity in ip dosed Swiss mouse assessed as protection against maximal electroshock-induced seizures at 0.5 hrs; format: functional
[22] = Protective index, ratio of TD50 for neurotoxicity in ip dosed Swiss mouse to ED50 for anticonvulsant activity in ip dosed Swiss mouse 6 Hz psychomotor seizure model at 0.5 hrs; format: toxicity, organism-based; details: in vivo, read-out: Ratio TD50/ED50
Mus musculus [23] = assay: Anticonvulsant activity against ip dosed Swiss mouse seizure model assessed as protection at 0.5 hrs by 6 Hz psychomotor seizure test; format: functional
[24] = Protective index, ratio of TD50 for neurotoxicity in ip dosed Swiss mouse to ED50 for anticonvulsant activity in ip dosed MES Swiss mouse model at 0.5 hrs; format: toxicity, organism-based; details: in vivo, read-out: Ratio TD50/ED50
[25] = Neurotoxicity in ip dosed Swiss mouse seizure model assessed as motor impairment pretreated for 0.5 hrs measured within 60 s by chimney test; format: toxicity, organism-based; details: in vivo
Rattus norvegicus [26] = species: Rattus norvegicus; assay: Displacement of [3H]Batrachotoxinin from sodium channel site 2 in rat cerebral cortex at 100 uM after 60 mins by scintillation counting method; format: tissue-based
Rattus norvegicus [27] = species: Rattus norvegicus; assay: Displacement of [3H]Batrachotoxinin from sodium channel site 2 in rat cerebral cortex at 500 uM after 60 mins by scintillation counting method; format: tissue-based

CCC(C(=O)N1CCN(c2cccc(Cl)c2)CC1)N1C(=O)CC(C)C1=O (centres undefined)
Activity (Mus musculus [1]): Active
selectivity ratio at 0.25 h [2]: 1.91
selectivity ratio at 0.25 h [3]: 5.13
TD50 at 0.25 h [4]: 223 mg/kg
Activity (Mus musculus [5]): 93%
Activity (Mus musculus [6]): inactive
Activity (Mus musculus [7]): inactive
Activity (Mus musculus [8]): inactive
Activity (Mus musculus [9]): inactive
Activity (Mus musculus [10]): inactive
ED50 (Mus musculus [11]): 43.5 mg/kg
ED50 (Mus musculus [12]): 117 mg/kg
ED50 (Mus musculus [13]): > 130 mg/kg

CC(C(=O)N1CCN(c2cccc(Cl)c2Cl)CC1)N1C(=O)CC(C)(C)C1=O (centres undefined)
Activity (Mus musculus [14]): inactive
Activity (Mus musculus [15]): inactive
Activity (Mus musculus [16]): inactive
Activity (Mus musculus [7]): inactive

CC(C(=O)N1CCN(c2ccccc2)CC1)N1C(=O)CC(C)(C)C1=O (centres undefined)
Activity (Mus musculus [14]): Active
Activity (Mus musculus [15]): Active
Activity (Mus musculus [7]): inactive
Activity (Mus musculus [8]): inactive
Activity (Mus musculus [9]): inactive
ED50 (Mus musculus [12]): > 130 mg/kg

Cc1cccc(N2CCN(C(=O)C(C)N3C(=O)CC(C)C3=O)CC2)c1 (centres undefined)
selectivity ratio at 0.25 h [2]: 1.73
TD50 at 0.25 h [4]: 210 mg/kg
Activity (Mus musculus [14]): Active
Activity (Mus musculus [15]): Active
Activity (Mus musculus [7]): inactive
Activity (Mus musculus [8]): inactive
Activity (Mus musculus [9]): inactive
ED50 (Mus musculus [12]): 122 mg/kg

COc1cccc(N2CCN(C(=O)C(C)N3C(=O)CC(C)(C)C3=O)CC2)c1 (centres undefined)
Activity (Mus musculus [16]): inactive
Activity (Mus musculus [7]): inactive
Activity (Mus musculus [17]): inactive
Activity (Mus musculus [18]): inactive
Activity (Mus musculus [8]): inactive
Activity (Mus musculus [9]): inactive

CC(C(=O)N1CCN(c2cccc(Cl)c2)CC1)N1C(=O)CC(C)(C)C1=O (centres undefined)
Activity (Mus musculus [1]): Active
ED50 (Mus musculus [19]): > 130 mg/kg
selectivity ratio at 0.25 h [2]: 1.47
selectivity ratio at 0.25 h [3]: 8.91
TD50 at 0.25 h [4]: 176 mg/kg
Activity (Mus musculus [5]): 91%
Activity (Mus musculus [6]): 44%
Activity (Mus musculus [14]): Active
Activity (Mus musculus [15]): Active
Activity (Mus musculus [17]): Active
Activity (Mus musculus [9]): inactive
Activity (Mus musculus [20]): inactive
Activity (Mus musculus [10]): inactive
ED50 (Mus musculus [11]): 19.8 mg/kg
ED50 (Mus musculus [12]): 120 mg/kg

CC(C(=O)N1CCN(c2cccc(F)c2)CC1)N1C(=O)CC(C)(C)C1=O (centres undefined)
Activity (Mus musculus [9]): inactive

COC[C@@H](NC(C)=O)C(=O)NCc1ccccc1 [LACOSAMIDE]
ED50 (Mus musculus [19]): > 500 mg/kg
ED50 (Mus musculus [21]): 9.4 mg/kg
selectivity ratio at 0.5 h [22]: 5.26
ED50 (Mus musculus [23]): 6.4 mg/kg
selectivity ratio at 0.5 h [24]: 3.6

CC1CC(=O)N(C(C)C(=O)N2CCN(c3ccccc3F)CC2)C1=O (centres undefined)
Activity (Mus musculus [16]): inactive
Activity (Mus musculus [7]): inactive
Activity (Mus musculus [18]): inactive
Activity (Mus musculus [8]): inactive
Activity (Mus musculus [9]): inactive

CC1CC(=O)N(C(C)C(=O)N2CCN(c3ccc(Cl)cc3)CC2)C1=O (centres undefined)
Activity (Mus musculus [7]): inactive

CC1CC(=O)N(CC(=O)N2CCN(c3cccc(C(F)(F)F)c3)CC2)C1=O (centres undefined)
ED50 (Mus musculus [19]): > 200 mg/kg
ED50 (Mus musculus [21]): 80.6 mg/kg
ED50 (Mus musculus [23]): 52.3 mg/kg
TD50 at 0.5 h [25]: 225 mg/kg

CC1CC(=O)N(C(C)C(=O)N2CCN(c3cccc(F)c3)CC2)C1=O (centres undefined)
Activity (Mus musculus [16]): inactive
Activity (Mus musculus [7]): inactive
Activity (Mus musculus [18]): inactive
Activity (Mus musculus [8]): inactive
Activity (Mus musculus [9]): inactive

CC(C(=O)N1CCN(C)CC1)N1C(=O)CC(C)(C)C1=O (centres undefined)
Activity (Mus musculus [14]): inactive
Activity (Mus musculus [15]): inactive
Activity (Mus musculus [16]): inactive
Activity (Mus musculus [7]): inactive

CC1CC(=O)N(C(C)C(=O)N2CCN(c3ccc(F)cc3)CC2)C1=O (centres undefined)
Activity (Mus musculus [16]): inactive
Activity (Mus musculus [7]): inactive

CC1CC(=O)N(C(C)C(=O)N2CCN(c3ccccc3Cl)CC2)C1=O (centres undefined)
Activity (Mus musculus [7]): inactive
Activity (Mus musculus [17]): inactive
Activity (Mus musculus [18]): inactive
Activity (Mus musculus [8]): inactive
Activity (Mus musculus [9]): inactive

CC1CC(=O)N(C(C)C(=O)N2CCN(c3ccc(Cl)c(Cl)c3)CC2)C1=O (centres undefined)
Activity (Mus musculus [8]): inactive
Activity (Mus musculus [9]): inactive

CC1CC(=O)N(C(C)C(=O)N2CCN(c3cccc(Cl)c3Cl)CC2)C1=O (centres undefined)
Activity (Mus musculus [14]): inactive
Activity (Mus musculus [15]): inactive
Activity (Mus musculus [16]): inactive
Activity (Mus musculus [7]): inactive

CC(C(=O)N1CCN(c2ccccc2C(F)(F)F)CC1)N1C(=O)CC(C)(C)C1=O (centres undefined)
Activity (Mus musculus [14]): Active
Activity (Mus musculus [15]): Active
Activity (Mus musculus [8]): inactive
Activity (Mus musculus [9]): inactive
ED50 (Mus musculus [12]): > 130 mg/kg

CC(C(=O)N1CCN(c2ccccc2F)CC1)N1C(=O)CC(C)(C)C1=O (centres undefined)
Activity (Mus musculus [14]): inactive
Activity (Mus musculus [15]): inactive
Activity (Mus musculus [16]): inactive
Activity (Mus musculus [7]): inactive

CC1CC(=O)N(C(C)C(=O)N2CCN(C)CC2)C1=O (centres undefined)
Activity (Mus musculus [14]): inactive
Activity (Mus musculus [15]): inactive
Activity (Mus musculus [16]): inactive
Activity (Mus musculus [7]): inactive

CC(C(=O)N1CCN(c2ccc(F)cc2)CC1)N1C(=O)CC(C)(C)C1=O (centres undefined)
Activity (Mus musculus [14]): inactive
Activity (Mus musculus [7]): inactive

CC1CC(=O)N(C(C)C(=O)N2CCN(c3ccccc3C(F)(F)F)CC2)C1=O (centres undefined)
Activity (Mus musculus [14]): Active
Activity (Mus musculus [7]): inactive
Activity (Mus musculus [9]): inactive

CC1CC(=O)N(C(C)C(=O)N2CCN(c3ccccc3)CC2)C1=O (centres undefined)
Activity (Mus musculus [18]): inactive
Activity (Mus musculus [8]): inactive
Activity (Mus musculus [9]): inactive

CCC(C(=O)N1CCN(c2cccc(C(F)(F)F)c2)CC1)N1C(=O)CC(C)(C)C1=O (centres undefined)
Activity (Mus musculus [9]): inactive

NC(=O)N1c2ccccc2C=Cc2ccccc21
inhibition (Rattus norvegicus [26]): 17.4%
inhibition (Rattus norvegicus [27]): 33.6%

CCC(C(=O)N1CCN(c2cccc(Cl)c2)CC1)N1C(=O)CC(C)(C)C1=O (centres undefined)
Activity (Mus musculus [17]): inactive
Activity (Mus musculus [18]): inactive
Activity (Mus musculus [8]): inactive
Activity (Mus musculus [9]): inactive

CC(C(=O)N1CCN(c2ccc(Cl)c(Cl)c2)CC1)N1C(=O)CC(C)(C)C1=O (centres undefined)
Activity (Mus musculus [9]): inactive

CC(C(=O)N1CCN(c2ccccc2Cl)CC1)N1C(=O)CC(C)(C)C1=O (centres undefined)
Activity (Mus musculus [14]): inactive
Activity (Mus musculus [7]): inactive

Cc1cccc(N2CCN(C(=O)C(C)N3C(=O)CC(C)(C)C3=O)CC2)c1 (centres undefined)
Activity (Mus musculus [7]): inactive
Activity (Mus musculus [17]): inactive
Activity (Mus musculus [18]): inactive
Activity (Mus musculus [8]): inactive
Activity (Mus musculus [9]): inactive

COc1cccc(N2CCN(C(=O)C(C)N3C(=O)CC(C)C3=O)CC2)c1 (centres undefined)
Activity (Mus musculus [18]): inactive
Activity (Mus musculus [8]): inactive
Activity (Mus musculus [9]): inactive
